Data taken from patent US20070191493A1, “Use of n-alkanols as activators of the cftr channel” (priority 2003, published 2007).
Like-named read-outs stand apart in the source and are kept apart here.

Assays:
CFTR channel = CFTR channel (Homo sapiens, UniProt P13569); assay: 125I radioactive iodide efflux in CHO-CFTR(+) cells; assay type: cell-based; set-up: expressed in transfected cells; host or cells: CHO (Chinese hamster ovary) cells, CHO-CFTR(+)
Method: The cells are cultured in 24-well plates with a dilution to 1/10 after passage. […] The operation is repeated every 30 s for 2 to 6 min. […] All the samples are counted in a gamma counter (Kontron). The precipitated proteins are solubilized in 0.1N NaOH and quantified using a calorimetric test.
(§1) The tracer contained in the cell layer at the beginning of the efflux is calculated as the sum of the samples and of the extracts counted. The efflux curves are constructed by expressing the percentage of the content remaining in the cell layer (I %) with respect to time. The stimulated or nonstimulated efflux rate constants (k, min^−1) are determined by smoothing the efflux curves to a monoexponential function I %=100*exp(−kt) using a linear regression of the neperian logarithm of the data, k is used to calculate the iodide released into the medium with respect to time. The hypothesis is made that, in the presence of a stimulator, the efflux is the sum of two iodide effluxes occurring in parallel: a basal efflux and a stimulated efflux characterized, respectively, by the constants kb and ks. The total net efflux is then described by the equation It^%=100*(1−exp(−ktt)) where kt is the sum of kb and ks. Finally, ks calculated as kt−kb is used to establish a dose-response relationship for antagonists. The data is expressed as means ±SD, and the t-test is used to determine the significances. The concentration-response curves for agonists or for antagonists are smooth using the hyperbolic equation Y=Ymax*X/(EC5C+X), where Y is the response. Y begins at the basal level and progresses to the plateau (Ymax), X is the concentration and the half-effect values (EC are calculated using GraphPad Prism v3.0 (GraphPad software)).

intracellular cAMP level = assay: total intracellular cAMP assay in CHO-CFTR(+) cells; assay type: cell-based, Chinese hamster; details: 5 min, FSK 1 or 5 μM, alcohols 1 mM
Method: The CHO cells are cultured for four days in a 24-well culture plate. On the fourth day of culture, each well is rinsed twice with 500 μl of medium B, and 500 μl of this buffer containing the molecule to be tested are added to each well. After incubation at 37° C. for 5 min, the reaction is stopped by adding a cell lysis buffer. The cell lysis is verified with Trypan blue. The amount of cAMP contained in the cells is determined using the Enzyme Immuno Assay kit (Amersham Biotechnology). The cAMP level is expressed in pmol/well ±SD.

[1] = target: T1, ΔF508 mutated CFTR channel (Homo sapiens, UniProt P13569, DEL508-508); assay: iodide efflux in JME/CF15 human bronchial epithelial cells from cystic fibrosis patients; assay type: cell-based; details: JME/CF15 cells
T1 construct: epithelial cells extracted from respiratory airways of patients suffering from cystic fibrosis (homozygous ΔF508); endogenous in cells; host or cells: JME/CF15 human airway epithelial cells (homozygous ΔF508)
Method: (§2) The CFTR studies are also carried out on Calu-3 cells (ATCC No. HTB-55), which are human pulmonary epithelial cells endogenously expressing the CFTR channel. These cells are cultured under the same culture conditions as the CHO cells. The study of the mutated CFTR channel is carried out on JME/CF15 cells, which are epithelial cells extracted from respiratory airways of patients suffering from cystic fibrosis (homozygous ΔF508) (Jefferson et al., 1990). These cells therefore express the ΔF508 mutated CFTR channel. These cells are cultured under the same conditions as above, but the culture medium is supplemented with a hormone mixture containing: adenine (180 μM), insulin (5 μg/ml), transferrin (5 μg/ml), hydrocortisone (1.1 μM), triiodothyronine (2 nM), epinephrine (5.5 μM), epidermal growth factor (1.64 nM).
(§3) This technique makes it possible to follow the kinetics of exit of the ^125I radioactive iodide. The cells are cultured in 24-well plates with a dilution to 1/10 after passage. On the fourth day of culture, the drugs to be tested are dissolved in solution according to the desired concentration, at 37° C., in medium B, at pH 7.4, containing, in mM: 137 NaCl, 5.36 KCl, 0.8 mM MgCl2, 1.8 mM CaCl2, 5.5 glucose and 10 HEPES-NaOH. The wells are washed 4 times with 500 μl of medium B. The solution is subsequently replaced with 500 μl of loading solution containing 1 μM KI and 0.5 μCi of ^125INa/ml for 30 min. The kinetics of exit of ^125I are determined after having eliminated the loading solution and washed the wells 4 times with 500 μl of medium B. For the ^125I exit kinetics, 500 μl of medium B containing or not containing the molecules to be tested are incubated for 30 sec in the wells and recovered in a hemolysis tube, so as to be replaced with 500 μl of medium B containing or not containing the molecules to be tested. The operation is repeated every 30 s for 2 to 6 min. At the end of the efflux, the intracellular ions are extracted by adding 1 ml of trichloroacetic acid (7.5%) to the cell layer. All the samples are counted in a gamma counter (Kontron). The precipitated proteins are solubilized in 0.1N NaOH and quantified using a calorimetric test.
as §1, with “The concentration-response curves for agonists or for antagonists are smooth using the hyperbolic equation Y=Ymax*X/(EC5C+X), where Y is the response.” left out

[2] = target: T2, human CFTR channel endogenously expressed in Calu-3 (Homo sapiens, UniProt P13569); assay: iodide efflux in Calu-3 human bronchial epithelial cells; assay type: cell-based; details: for EC50: Calu-3 cells, read-out: half-effect concentration (EC50)
T2 construct: human pulmonary epithelial cells endogenously expressing the CFTR channel; host or cells: Calu-3 human pulmonary epithelial cells
Method: as §2, §3
as §1, with “The concentration-response curves for agonists or for antagonists are smooth using the hyperbolic equation Y=Ymax*X/(EC5C+X), where Y is the response.” left out

T2 sequence (P13569 whole entry): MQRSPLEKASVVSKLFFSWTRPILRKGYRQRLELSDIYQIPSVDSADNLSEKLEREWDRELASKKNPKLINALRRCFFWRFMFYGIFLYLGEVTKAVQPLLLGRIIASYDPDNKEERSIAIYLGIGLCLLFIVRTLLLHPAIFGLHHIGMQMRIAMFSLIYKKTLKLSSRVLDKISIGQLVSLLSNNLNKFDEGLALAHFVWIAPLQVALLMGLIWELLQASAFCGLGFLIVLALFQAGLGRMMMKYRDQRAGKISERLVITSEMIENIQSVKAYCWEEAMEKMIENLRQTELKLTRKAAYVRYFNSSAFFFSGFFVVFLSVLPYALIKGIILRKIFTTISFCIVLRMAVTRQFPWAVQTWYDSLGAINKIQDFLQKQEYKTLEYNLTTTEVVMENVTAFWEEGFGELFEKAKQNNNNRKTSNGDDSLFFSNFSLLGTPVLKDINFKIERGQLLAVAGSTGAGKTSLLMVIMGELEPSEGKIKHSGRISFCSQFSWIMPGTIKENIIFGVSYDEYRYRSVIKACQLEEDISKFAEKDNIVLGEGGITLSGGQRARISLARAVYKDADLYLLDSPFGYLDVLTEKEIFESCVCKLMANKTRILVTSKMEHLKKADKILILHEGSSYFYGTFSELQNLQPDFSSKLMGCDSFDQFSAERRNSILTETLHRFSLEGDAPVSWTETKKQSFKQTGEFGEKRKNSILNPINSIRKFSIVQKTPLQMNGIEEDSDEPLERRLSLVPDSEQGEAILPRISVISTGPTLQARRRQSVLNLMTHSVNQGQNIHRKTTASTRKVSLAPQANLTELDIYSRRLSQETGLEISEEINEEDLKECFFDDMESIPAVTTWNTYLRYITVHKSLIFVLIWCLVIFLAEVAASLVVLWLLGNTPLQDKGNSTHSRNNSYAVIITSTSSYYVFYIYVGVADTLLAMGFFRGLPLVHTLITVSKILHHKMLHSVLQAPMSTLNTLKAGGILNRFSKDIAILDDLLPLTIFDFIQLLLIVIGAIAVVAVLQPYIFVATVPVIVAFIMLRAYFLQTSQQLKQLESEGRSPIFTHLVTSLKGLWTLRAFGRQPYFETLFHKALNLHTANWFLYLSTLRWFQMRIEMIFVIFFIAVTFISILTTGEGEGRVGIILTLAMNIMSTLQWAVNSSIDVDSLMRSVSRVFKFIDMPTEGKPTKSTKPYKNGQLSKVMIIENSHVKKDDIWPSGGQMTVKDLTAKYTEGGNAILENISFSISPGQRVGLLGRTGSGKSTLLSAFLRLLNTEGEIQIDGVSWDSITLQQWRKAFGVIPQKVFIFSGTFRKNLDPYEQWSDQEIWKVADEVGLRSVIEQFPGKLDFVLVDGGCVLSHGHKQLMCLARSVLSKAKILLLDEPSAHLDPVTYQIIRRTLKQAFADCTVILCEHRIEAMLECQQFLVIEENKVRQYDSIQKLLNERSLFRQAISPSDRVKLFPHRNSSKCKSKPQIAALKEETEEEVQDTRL
CFTR channel, sequence (P13569 whole entry): as above
T1 sequence (P13569 with tags, fused parts or gaps DEL508-508): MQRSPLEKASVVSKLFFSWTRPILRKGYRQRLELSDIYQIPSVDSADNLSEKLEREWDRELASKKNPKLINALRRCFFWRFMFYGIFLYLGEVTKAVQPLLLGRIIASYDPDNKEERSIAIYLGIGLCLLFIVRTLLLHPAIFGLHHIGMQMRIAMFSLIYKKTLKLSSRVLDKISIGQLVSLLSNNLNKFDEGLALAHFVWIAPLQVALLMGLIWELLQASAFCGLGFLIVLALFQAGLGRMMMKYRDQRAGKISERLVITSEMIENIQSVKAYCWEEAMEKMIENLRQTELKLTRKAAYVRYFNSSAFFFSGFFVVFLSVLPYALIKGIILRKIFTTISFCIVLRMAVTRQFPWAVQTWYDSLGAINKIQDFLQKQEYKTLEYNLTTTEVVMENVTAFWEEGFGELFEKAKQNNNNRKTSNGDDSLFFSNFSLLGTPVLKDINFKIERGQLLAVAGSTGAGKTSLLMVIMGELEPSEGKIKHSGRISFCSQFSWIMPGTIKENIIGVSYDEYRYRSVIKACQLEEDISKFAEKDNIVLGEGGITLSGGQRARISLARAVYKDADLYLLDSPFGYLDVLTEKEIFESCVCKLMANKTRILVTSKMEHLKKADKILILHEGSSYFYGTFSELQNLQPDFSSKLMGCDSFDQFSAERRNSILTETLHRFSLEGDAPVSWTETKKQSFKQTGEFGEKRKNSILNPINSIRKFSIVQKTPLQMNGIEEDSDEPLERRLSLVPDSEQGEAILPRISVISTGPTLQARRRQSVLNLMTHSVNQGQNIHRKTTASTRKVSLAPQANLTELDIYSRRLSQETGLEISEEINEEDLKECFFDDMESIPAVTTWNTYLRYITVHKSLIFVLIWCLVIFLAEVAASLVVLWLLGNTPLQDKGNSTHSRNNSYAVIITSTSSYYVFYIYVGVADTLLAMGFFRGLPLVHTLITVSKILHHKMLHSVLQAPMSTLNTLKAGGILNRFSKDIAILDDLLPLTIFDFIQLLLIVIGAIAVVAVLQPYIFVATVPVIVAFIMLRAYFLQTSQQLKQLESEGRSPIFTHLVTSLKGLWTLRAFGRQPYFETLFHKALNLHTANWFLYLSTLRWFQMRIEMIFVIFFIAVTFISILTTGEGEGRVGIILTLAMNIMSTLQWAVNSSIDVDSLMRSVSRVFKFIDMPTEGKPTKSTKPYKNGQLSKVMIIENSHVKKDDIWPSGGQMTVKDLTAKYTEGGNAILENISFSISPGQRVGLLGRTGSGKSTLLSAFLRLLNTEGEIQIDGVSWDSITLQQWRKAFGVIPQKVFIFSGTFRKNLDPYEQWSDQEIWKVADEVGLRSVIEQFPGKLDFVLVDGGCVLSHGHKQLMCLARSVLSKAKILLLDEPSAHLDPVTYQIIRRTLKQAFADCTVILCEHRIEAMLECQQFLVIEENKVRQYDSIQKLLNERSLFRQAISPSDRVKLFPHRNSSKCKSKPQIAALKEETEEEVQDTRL

- concentration at which plateau of CFTR activation is reached (CFTR channel; CHO-CFTR(+) cells): 1 mM
- activation of CFTR (125I efflux), in words (CFTR channel; CHO-CFTR(+) cells, n-alkanols 1 mM, FSK 1 μM, A23187 2 μM, α-GA 10 and 100 μM): increase in activation of CFTR
- EC50 (CFTR channel; CHO-CFTR(+) cells, read-out: half-activation dose): 500 µM
- EC50 (CFTR channel; EC50 of activation of CFTR (125I efflux rate constant), CHO-CFTR(+) cells, octan-1-ol 0.1 to 5 mM): ~500 µM
- effect on the basal level when the mutated channel is not present at the plasma membrane [1]: has no effect on the basal level
- activation of mutated CFTR-ΔF508 channel as share of maximum activity (10 μM FSK+30 μM genistein = 100%) ([1]; octan-1-ol 1 mM): approximately 50%
- EC50 ([2]; in the absence of FSK): 1140 µM
- EC50 ([2]; in the presence of FSK (1 μM)): 512 µM
- activation of iodide efflux in Calu-3 cells, in words ([2]; octan-1-ol 0.1 to 10 mM, FSK 1 μM): activates the exit of iodide
SMILES: CCCCCCCCO [octan-1-ol]
- order of activation of CFTR by n-alkanols (CFTR channel; 1 mM, 125I efflux or patch-clamp): hexan-1-ol<heptan-1-ol<octan-1-ol<octan-2-ol<decan-1-ol
- effect on intracellular cAMP level (intracellular cAMP level): neither octan-1-ol, hexan-1-ol or ethanol modifies the basal cAMP level
- activation of ΔF508 mutated CFTR channel, in words ([1]; 1 mM): specifically activates the ΔF508 mutated CFTR channel
